Laboratory results published in patent US8729312B2, “Derivatives of novel peroxides, method of preparation thereof and use thereof in human medicine as well as in cosmetics for the treatment or prevention of acne” (Galderma Research & Development, priority 2009, dated 2014).
In brackets after ≈: the same amount, converted by molar mass. Several values for one entry are separate records, joined by “and”; a condition that tells them apart may be missing. Equal values may be shown once.

How the values were obtained:
P. acnes CIP53.117 = assay: Minimum inhibitory concentration (MIC) on Propionibacterium acnes, dilution in liquid medium; format: cell-based; conditions: strain CIP53.117, anaerobic, 36° C., minimum 72 h, range 2.5 mg/L to 1280 mg/L
Excerpt: (§1) the aim is to evaluate the anti-bacterial activity of the peroxides by measuring the minimum inhibitory concentration (MIC). The MIC is defined as the lowest concentration of product capable of inhibiting all visible growth.
(§2) The sensitivity of the products is investigated on two strains from the Pasteur Institute collection (CIP) of Propionibacterium acnes (P. acnes): • P. acnes CIP53.117, equivalent to ATCC6919, origin: facial acne lesion (1920), source CRBIP, Pasteur Institute, Paris • P. acnes CIPA179, origin: sebaceous gland (1946), source CRBIP, Pasteur Institute, Paris Tests on the Products:
(§3) The products are dissolved at 1280 mg/L in a mixture of absolute ethanol/sterile Tween 80/sterile Wilkins Chalgren broth ([…]). The dilution ranges used are an adaptation of the method described by the CLSI for methods of dilution in liquid medium. The range consists of 10 concentrations from 2.5 mg/L to 1280 mg/L at intervals of ratio 2.
(§4) The suspension of P. acnes is prepared in Wilkins Chalgren broth and calibrated at an optical density of about 0.4 at wavelength of 525 nm. It is then diluted to 1/10 in Wilkins Chalgren broth and then put in the test cupules to obtain a final suspension of about 10^5-10^6 CFU/mL in each test cupule.
(§5) The solutions of the test products are distributed on a 96-well microplate and incubated at 36° C.±2° C. under anaerobic atmosphere for a minimum of 72 h. The first cupule for which there is no growth visible to the naked eye is regarded as the MIC.

P. acnes CIPA179 = assay: as above; format: cell-based; conditions: strain CIPA179, anaerobic, 36° C., minimum 72 h, range 2.5 mg/L to 1280 mg/L
Excerpt: as §1, §2, §3, §4, §5

TPA-induced ear oedema = assay: Anti-inflammatory activity after a single topical administration in TPA-induced ear oedema; format: in vivo, mouse; conditions: for Inhibition vs TPA (%) / Ear oedema Mean / anti-inflammatory effect (conclusion in words): single topical application; for Inhibition vs TPA (%): T6h; for Ear oedema Mean: mouse ear thickness at T6h; for ranking compared to BPO at 5%: compound at 5%
Experimental: the aim is to evaluate the anti-inflammatory activity of the peroxides by measuring the thickness of mouse ear after TPA topical application. The anti-inflammatory activity is defined as a inhibition percentage of the TAP-induced ear oedema.
An oedema was induced by a single topical application of 20 μl of TPA dissolved in acetone at 0.01%.
Then a single topical application of tested compounds dissolved in TPA solution.
Ear thickness was measured at T6h.
Results are expressed in percentages based on the inhibition on the oedema induced by the TPA application.
Benzoyl peroxide (BPO) was tested 2 times as a reference peroxide.

[1] = TPA-induced ear oedema mouse model

SMILES | MIC (P. acnes CIP53.117; Cutibacterium acnes) [µg/mL] | MIC (P. acnes CIPA179; Cutibacterium acnes) [µg/mL] | Inhibition vs TPA (%) (TPA-induced ear oedema; compound 1% in TPA 0.01%) | Ear oedema Mean (TPA-induced ear oedema; compound 1% in TPA 0.01%) | Inhibition vs TPA (%) (TPA-induced ear oedema; compound 2.5% in TPA 0.01%) | Ear oedema Mean (TPA-induced ear oedema; compound 2.5% in TPA 0.01%) | Inhibition vs TPA (%) (TPA-induced ear oedema; compound 5% in TPA 0.01%) | Ear oedema Mean (TPA-induced ear oedema; compound 5% in TPA 0.01%) | ranking compared to BPO at 5% (TPA-induced ear oedema; [1]) | anti-inflammatory effect (conclusion in words) (TPA-induced ear oedema; [1]) | MIC (minimum inhibitory concentration) (P. acnes CIP53.117) [mg/L] | MIC (minimum inhibitory concentration) (P. acnes CIPA179) [mg/L] | ranking of Ex n°1 against Ex n°2 (TPA-induced ear oedema; both at 5%, TPA-induced ear oedema mouse model)
CC(=O)OCOc1ccccc1C(=O)OOC(=O)c1ccccc1 [Example 2, (2-acetoxymethoxy-benzoyl)benzoyl peroxide] | 160 (≈ 484 µM) | 80 (≈ 242 µM) | 19.7 | 20.40 | 42.5 | 14.60 | 71.7% | 7.20 | superior compared to BPO 5% | moderate anti-inflammatory effect | – | – | –
CC(=O)OCOc1ccccc1C(=O)OOC(=O)c1ccccc1OCOC(C)=O [Example 1, bis(2-acetoxymethoxy)-benzoyl peroxide] | – | – | 45.7 | 13.80 | 74.8 | 6.40 | 81.9% | 4.60 | superior compared to BPO 5% | strong dose-dependent anti-inflammatory effect | 320 (≈ 765 µM) | 320 (≈ 765 µM) | slightly better than Ex n°2 at 5%
O=C(OOC(=O)c1ccccc1)c1ccccc1 [BPO, Benzoyl peroxide, reference compound] | – | – | – | – | – | – | 21.4% and 27.8% | 17.60 and 20.80 | – | – | – | – | –
